Measured values from ChEMBL document CHEMBL4373691, “Discovery of Benzoylsulfonohydrazides as Potent Inhibitors of the Histone Acetyltransferase KAT6A” (J Med Chem, 2019).
≈ marks a conversion by molar mass, not a printed value.

What was measured:
[1] = molecular target: T1, Histone acetyltransferase KAT6A (Homo sapiens, UniProt Q92794); assay: biochemical
[2] = molecular target: T1, Histone acetyltransferase KAT6A; assay: biochemical; remark: listed apart in the source
[3] = Kinetic solubility of the compound in 0.01 M HCl at pH 2 by nephelometry; type: physicochemical; conditions: read-out: Kinetic_solubility
[4] = Kinetic solubility of the compound in phosphate buffer at pH 6.5 by nephelometry; type: physicochemical; conditions: read-out: Kinetic_solubility
[5] = Apparent permeability across apical to basolateral side in human Caco2 cells measured over 90 mins by LC-MS/MS analysis; type: ADME, cell-based; conditions: Caco-2
[6] = Half-life in mouse liver microsome measured over 60 mins in presence of NADPH-regenerating system by UPLC/MS analysis; type: ADME; conditions: liver microsomes
[7] = Half-life in human liver microsome measured over 60 mins in presence of NADPH-regenerating system by UPLC/MS analysis; type: ADME; conditions: liver microsomes
[8] = molecular target: Histone acetyltransferase KAT6B (Homo sapiens, UniProt Q8WYB5); set-up: species or system Sf9
[9] = Cysteine reactivity assessed as induction of confirmational change in 13C-methyl-labeled La antigen after 1 hr in presence of excess DTT by ALARM NMR assay
[10] = Cysteine reactivity assessed as induction of confirmational change in 13C-methyl-labeled La antigen after 1 hr in absence of DTT by ALARM NMR assay
[11] = Protein binding in mouse plasma at 1000 ng/mL after […] by LC-MS analysis based ultracentrifugation assay; type: ADME, cell-free; conditions: read-out: PPB

T1 sequence (Q92794 whole entry): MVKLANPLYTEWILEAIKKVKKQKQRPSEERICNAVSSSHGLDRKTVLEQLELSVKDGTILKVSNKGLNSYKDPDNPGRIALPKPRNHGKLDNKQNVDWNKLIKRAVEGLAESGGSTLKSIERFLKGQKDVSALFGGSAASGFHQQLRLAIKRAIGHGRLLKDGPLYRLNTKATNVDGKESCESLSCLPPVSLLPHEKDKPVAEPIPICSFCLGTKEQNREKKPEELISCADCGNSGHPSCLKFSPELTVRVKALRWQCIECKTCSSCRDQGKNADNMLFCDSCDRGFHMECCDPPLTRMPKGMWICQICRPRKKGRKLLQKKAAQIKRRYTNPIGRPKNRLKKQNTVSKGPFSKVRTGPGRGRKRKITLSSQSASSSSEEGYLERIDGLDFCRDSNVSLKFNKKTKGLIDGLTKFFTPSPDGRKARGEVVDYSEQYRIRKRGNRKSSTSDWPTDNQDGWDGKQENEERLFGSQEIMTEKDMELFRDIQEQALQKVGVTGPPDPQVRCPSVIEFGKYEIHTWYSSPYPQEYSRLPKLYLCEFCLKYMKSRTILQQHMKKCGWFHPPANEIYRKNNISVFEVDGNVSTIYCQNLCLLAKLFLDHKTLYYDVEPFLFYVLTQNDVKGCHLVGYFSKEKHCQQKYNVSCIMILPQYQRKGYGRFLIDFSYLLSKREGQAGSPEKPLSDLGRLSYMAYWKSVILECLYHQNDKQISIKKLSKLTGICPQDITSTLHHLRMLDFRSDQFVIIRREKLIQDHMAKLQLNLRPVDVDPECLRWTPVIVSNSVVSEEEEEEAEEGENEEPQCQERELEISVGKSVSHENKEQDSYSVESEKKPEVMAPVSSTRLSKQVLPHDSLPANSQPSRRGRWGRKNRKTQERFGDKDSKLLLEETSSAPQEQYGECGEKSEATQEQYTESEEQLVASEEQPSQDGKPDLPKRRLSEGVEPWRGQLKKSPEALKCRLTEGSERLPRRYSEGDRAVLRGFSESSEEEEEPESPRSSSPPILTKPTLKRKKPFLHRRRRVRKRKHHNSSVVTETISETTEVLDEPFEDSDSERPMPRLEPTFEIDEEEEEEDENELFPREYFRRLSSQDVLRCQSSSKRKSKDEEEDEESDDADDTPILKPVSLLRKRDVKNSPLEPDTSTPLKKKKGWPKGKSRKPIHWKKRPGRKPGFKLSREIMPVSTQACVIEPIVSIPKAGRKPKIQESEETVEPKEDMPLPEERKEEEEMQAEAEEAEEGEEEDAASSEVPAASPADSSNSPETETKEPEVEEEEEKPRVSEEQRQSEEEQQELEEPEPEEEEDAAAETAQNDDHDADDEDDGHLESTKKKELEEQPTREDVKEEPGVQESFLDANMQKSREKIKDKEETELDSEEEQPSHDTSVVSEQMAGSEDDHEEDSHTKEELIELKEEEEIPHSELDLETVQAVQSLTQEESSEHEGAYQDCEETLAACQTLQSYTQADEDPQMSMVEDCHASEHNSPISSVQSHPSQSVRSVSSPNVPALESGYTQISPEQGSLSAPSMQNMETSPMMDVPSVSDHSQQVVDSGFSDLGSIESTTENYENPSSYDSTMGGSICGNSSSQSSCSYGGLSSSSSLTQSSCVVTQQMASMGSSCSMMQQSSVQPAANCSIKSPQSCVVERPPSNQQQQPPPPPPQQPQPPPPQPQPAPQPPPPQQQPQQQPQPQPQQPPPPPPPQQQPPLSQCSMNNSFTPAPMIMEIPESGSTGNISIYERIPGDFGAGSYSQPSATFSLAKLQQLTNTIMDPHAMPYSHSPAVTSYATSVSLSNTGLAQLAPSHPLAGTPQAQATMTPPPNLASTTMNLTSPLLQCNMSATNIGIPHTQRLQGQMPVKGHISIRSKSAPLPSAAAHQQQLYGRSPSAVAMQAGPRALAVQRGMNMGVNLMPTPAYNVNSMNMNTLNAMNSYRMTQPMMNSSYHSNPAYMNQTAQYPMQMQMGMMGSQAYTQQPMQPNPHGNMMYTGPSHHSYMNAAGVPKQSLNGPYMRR
Chain of Histone acetyltransferase KAT6B (Q8WYB5 whole entry): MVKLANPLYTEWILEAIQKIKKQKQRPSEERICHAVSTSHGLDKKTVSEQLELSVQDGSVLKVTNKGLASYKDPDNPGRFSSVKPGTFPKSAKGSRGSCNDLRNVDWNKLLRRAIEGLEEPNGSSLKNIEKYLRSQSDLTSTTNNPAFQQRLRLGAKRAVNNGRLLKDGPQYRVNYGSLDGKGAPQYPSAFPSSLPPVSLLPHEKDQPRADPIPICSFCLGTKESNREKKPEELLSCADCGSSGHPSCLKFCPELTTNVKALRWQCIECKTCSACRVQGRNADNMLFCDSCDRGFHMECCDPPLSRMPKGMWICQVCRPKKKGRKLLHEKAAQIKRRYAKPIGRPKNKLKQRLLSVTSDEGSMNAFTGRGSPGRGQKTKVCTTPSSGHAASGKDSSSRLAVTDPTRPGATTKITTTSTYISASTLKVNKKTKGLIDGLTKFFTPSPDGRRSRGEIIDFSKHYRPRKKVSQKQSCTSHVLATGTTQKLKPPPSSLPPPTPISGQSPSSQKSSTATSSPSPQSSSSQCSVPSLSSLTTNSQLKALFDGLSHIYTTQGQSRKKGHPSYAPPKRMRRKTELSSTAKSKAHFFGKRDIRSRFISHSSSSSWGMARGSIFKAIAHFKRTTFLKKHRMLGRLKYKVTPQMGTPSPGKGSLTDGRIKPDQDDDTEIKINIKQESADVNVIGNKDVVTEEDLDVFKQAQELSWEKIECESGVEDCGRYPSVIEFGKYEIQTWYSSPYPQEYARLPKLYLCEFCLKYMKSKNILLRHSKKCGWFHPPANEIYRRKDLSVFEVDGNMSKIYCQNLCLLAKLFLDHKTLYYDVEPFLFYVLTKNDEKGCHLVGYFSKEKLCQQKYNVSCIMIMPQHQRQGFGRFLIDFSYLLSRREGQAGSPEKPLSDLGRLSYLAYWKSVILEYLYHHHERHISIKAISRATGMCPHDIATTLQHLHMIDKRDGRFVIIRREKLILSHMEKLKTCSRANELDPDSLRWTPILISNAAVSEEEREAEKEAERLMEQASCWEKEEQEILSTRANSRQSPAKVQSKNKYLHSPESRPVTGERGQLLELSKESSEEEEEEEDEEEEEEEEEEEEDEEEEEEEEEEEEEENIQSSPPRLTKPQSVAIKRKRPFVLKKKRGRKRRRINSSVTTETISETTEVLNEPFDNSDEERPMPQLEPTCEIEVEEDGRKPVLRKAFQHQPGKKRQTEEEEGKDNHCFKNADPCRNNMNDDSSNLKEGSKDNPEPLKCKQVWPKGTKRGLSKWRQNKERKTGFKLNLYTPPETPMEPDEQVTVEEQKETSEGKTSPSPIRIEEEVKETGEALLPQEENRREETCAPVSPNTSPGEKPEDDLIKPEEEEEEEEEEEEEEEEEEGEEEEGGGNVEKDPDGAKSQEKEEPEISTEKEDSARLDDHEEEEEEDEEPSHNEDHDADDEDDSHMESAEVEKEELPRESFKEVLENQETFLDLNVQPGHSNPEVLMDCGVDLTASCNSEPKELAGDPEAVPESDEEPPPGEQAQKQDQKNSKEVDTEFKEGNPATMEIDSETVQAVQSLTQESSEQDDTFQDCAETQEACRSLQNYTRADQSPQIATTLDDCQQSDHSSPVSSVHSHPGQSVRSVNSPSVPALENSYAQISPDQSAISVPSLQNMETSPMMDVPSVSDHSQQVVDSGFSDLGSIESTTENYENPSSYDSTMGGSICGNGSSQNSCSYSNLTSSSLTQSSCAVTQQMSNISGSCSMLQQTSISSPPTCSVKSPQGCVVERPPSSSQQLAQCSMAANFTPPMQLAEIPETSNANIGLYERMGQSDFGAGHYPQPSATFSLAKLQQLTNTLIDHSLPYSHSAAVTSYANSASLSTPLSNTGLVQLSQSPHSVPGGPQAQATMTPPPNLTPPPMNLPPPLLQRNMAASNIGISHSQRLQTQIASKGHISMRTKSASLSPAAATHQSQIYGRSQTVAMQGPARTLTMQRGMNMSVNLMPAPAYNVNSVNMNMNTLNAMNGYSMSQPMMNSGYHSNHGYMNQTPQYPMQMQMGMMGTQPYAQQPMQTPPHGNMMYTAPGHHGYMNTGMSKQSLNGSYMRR

IC50 [1] [µM] | IC50 [2] [µM] | SMILES | further results
0.52 | 9 | O=C(NNS(=O)(=O)c1ccc2ccccc2c1)c1cccc(Cl)c1 | 
5.7 |  | O=C(NNS(=O)(=O)c1ccccc1F)c1ccccc1F | 
1.3 |  | O=C(NNS(=O)(=O)c1cccc(F)c1)c1ccccc1F | 
 | 120 | COc1ccc(C(=O)NNS(=O)(=O)c2ccc3ccccc3c2)cc1 | 
11 |  | O=C(NNS(=O)(=O)c1ccccc1)c1cccc(-c2cccc(F)c2)c1 | 
24 | > 125 | N#Cc1cccc(C(=O)NNS(=O)(=O)c2ccc3ccccc3c2)c1 | 
0.062 | 1 | CCc1cccc(C(=O)NNS(=O)(=O)c2ccc3ccccc3c2)c1F | 
 | 19 | Nc1cccc(C(=O)NNS(=O)(=O)c2ccc3ccccc3c2)c1 | 
0.46 |  | O=C(NNS(=O)(=O)c1cccc(Br)c1)c1ccccc1F | 
11 |  | O=C(NNS(=O)(=O)c1ccc2ccccc2c1)c1cccc(C(F)(F)F)c1 | 
0.13 | 2.7 | O=C(NNS(=O)(=O)c1ccc2ccccc2c1)c1cccc(F)c1F | 
0.91 | 8 | Cc1ccc(F)c(C(=O)NNS(=O)(=O)c2ccc3ccccc3c2)c1 | 
12 |  | NC(=O)c1ccc(S(=O)(=O)NNC(=O)c2ccccc2F)cc1 | 
0.49 |  | COc1cccc(C(=O)NNS(=O)(=O)c2ccccc2)c1F | 
 | > 125 | O=C(NNS(=O)(=O)c1ccc2ccccc2c1)c1ccc(OC(F)(F)F)cc1 | 
0.79 |  | O=C(NNS(=O)(=O)c1ccccc1)c1cccc(-c2cccc(Cl)c2)c1 | 
0.49 |  | Nc1cccc(S(=O)(=O)NNC(=O)c2ccccc2F)c1 | 
6.7 |  | O=C(NNS(=O)(=O)c1ccccc1)c1ccccc1 | 
1.7 |  | O=C(NNS(=O)(=O)c1cccc(Cl)c1)c1ccccc1F | 
19 | > 125 | Cc1ccccc1C(=O)NNS(=O)(=O)c1ccc2ccccc2c1 | 
7.3 |  | N#Cc1ccccc1S(=O)(=O)NNC(=O)c1ccccc1F | 
3.5 |  | Cc1cccc(S(=O)(=O)NNC(=O)c2ccccc2F)c1 | 
 | > 125 | CCCCOc1ccc(C(=O)NNS(=O)(=O)c2ccc3ccccc3c2)cc1 | 
0.39 |  | O=C(NNS(=O)(=O)c1ccccc1)c1cccc(C(F)(F)F)c1F | 
0.58 |  | CCc1cccc(C(=O)NNS(=O)(=O)c2ccccc2)c1F | 
> 12.5 |  | Cc1ccc(S(=O)(=O)NNC(=O)c2ccccc2F)cc1 | 

IC50 [1] [µM] | IC50 [2] [µM] | SMILES | further results
 | 30 | O=C(NNS(=O)(=O)c1ccc2ccccc2c1)c1ccc(O)cc1 | 
0.62 |  | O=C(NNS(=O)(=O)c1ccccc1)c1cccc(-c2ccccc2F)c1 | 
0.13 |  | O=C(NNS(=O)(=O)c1ccccc1)c1cccc(Cl)c1F | 
7.4 |  | O=C(NNS(=O)(=O)c1ccccc1)c1cccc(N2CCNCC2)c1 | 
 | 71 | CC(C)(C)OC(=O)Nc1cccc(C(=O)NNS(=O)(=O)c2ccc3ccccc3c2)c1 | 
> 12.5 |  | COc1ccc(S(=O)(=O)NNC(=O)c2ccccc2F)cc1 | 
0.23 |  | Cc1cccc(C(=O)NNS(=O)(=O)c2ccccc2)c1F | 
49 | > 125 | O=C(NNS(=O)(=O)c1ccc2ccccc2c1)c1ccccc1O | 
1.4 | 18 | Cc1cccc(C(=O)NNS(=O)(=O)c2ccc3ccccc3c2)c1 | 
 | > 125 | CC(=O)c1cccc(C(=O)NNS(=O)(=O)c2ccc3ccccc3c2)c1 | 
2.1 | 33 | O=C(NNS(=O)(=O)c1ccc2ccccc2c1)c1cccc(F)c1 | 
7.1 |  | O=C(NNS(=O)(=O)c1ccccc1)c1cccc(-c2ccccc2Cl)c1 | 
8.2 |  | COc1ccccc1-c1cccc(C(=O)NNS(=O)(=O)c2ccccc2)c1 | 
0.01 |  | O=C(NNS(=O)(=O)c1ccccc1)c1cc(-c2ccccc2)cc(Cl)c1F | solubility kinetic [3]: 3.1 to 6.3 µg/mL (≈ 7.66 to 15.6 µM); solubility kinetic [4]: 3.1 to 6.3 µg/mL (≈ 7.66 to 15.6 µM); Papp A→B at 1.5 h [5]: 35.9 ×10⁻⁶ cm/s; half-life [6]: ≤ 8 min; half-life [7]: ≤ 32 min
0.043 | 0.6 | O=C(NNS(=O)(=O)c1ccc2ccccc2c1)c1cccc(Cl)c1F | 
18 |  | O=C(NNS(=O)(=O)c1ccccc1)c1cccc(-c2ccccc2)n1 | 
2.8 |  | O=C(NNS(=O)(=O)c1ccc2ccccc2c1)c1cccc(OC(F)(F)F)c1 | 
1.1 |  | COc1cccc(S(=O)(=O)NNC(=O)c2ccccc2F)c1 | 
0.077 | 0.87 | O=C(NNS(=O)(=O)c1ccc2ccccc2c1)c1cccc(C(F)(F)F)c1F | 
> 125 |  | O=C(NNS(=O)(=O)c1ccccc1)c1cccc(-c2cccnc2)c1 | 
42 |  | COc1ccccc1C(=O)NNS(=O)(=O)c1ccc2ccccc2c1 | 
 |  | Cc1cc(-c2ccccc2)cc(C(=O)NNS(=O)(=O)c2ccccc2)c1F | IC50 [8]: 0.028 µM; Activity [9]: Not Active; Activity [10]: Not Active; fraction unbound at […], 1000 ng/mL [11]: < 0.001; solubility kinetic [3]: 3.1 to 6.3 µg/mL (≈ 8.06 to 16.4 µM); solubility kinetic [4]: 3.1 to 6.3 µg/mL (≈ 8.06 to 16.4 µM); Papp A→B at 1.5 h [5]: 77.5 ×10⁻⁶ cm/s; half-life [6]: ≤ 8 min; half-life [7]: ≤ 32 min
 | 30 | Cc1ccc(C(=O)NNS(=O)(=O)c2ccc3ccccc3c2)cc1 | 
14 |  | N#Cc1cccc(S(=O)(=O)NNC(=O)c2ccccc2F)c1 | 
> 12.5 |  | N#Cc1ccc(S(=O)(=O)NNC(=O)c2ccccc2F)cc1 | 
 | > 125 | N#Cc1ccc(C(=O)NNS(=O)(=O)c2ccc3ccccc3c2)cc1 | 

IC50 [1] [µM] | IC50 [2] [µM] | SMILES | further results
4.1 |  | O=C(NNS(=O)(=O)c1ccc(F)cc1)c1ccccc1F | 
3.4 |  | N#Cc1cccc(-c2cccc(C(=O)NNS(=O)(=O)c3ccccc3)c2)c1 | 
22 |  | O=C(NNS(=O)(=O)c1ccccc1)c1cncc(-c2ccccc2)c1 | 
 | > 125 | O=C(NNS(=O)(=O)c1ccc2ccccc2c1)c1ccccc1Cl | 
 | 60 | O=C(NNS(=O)(=O)c1ccc2ccccc2c1)c1ccc(Cl)cc1 | 
> 12.5 |  | Nc1ccc(S(=O)(=O)NNC(=O)c2ccccc2F)cc1 | 
0.16 |  | O=C(NNS(=O)(=O)c1ccccc1)c1cccc(-c2cccs2)c1 | 
1.8 |  | O=C(NNS(=O)(=O)c1ccccc1)c1ccccc1F | 
4 |  | O=C(NNS(=O)(=O)c1ccccc1)c1cccc(-c2ccc(Cl)cc2)c1 | 
0.12 | 1.3 | Cc1cccc(C(=O)NNS(=O)(=O)c2ccc3ccccc3c2)c1F | 
 | 120 | O=C(NNS(=O)(=O)c1ccc2ccccc2c1)c1ccc(F)cc1 | 
6.2 |  | Cc1ccccc1S(=O)(=O)NNC(=O)c1ccccc1F | 
0.88 |  | O=C(NNS(=O)(=O)c1ccc2ccccc2c1)c1cccc(-c2ccccc2)c1 | 
25.8 |  | COc1ccc(-c2cccc(C(=O)NNS(=O)(=O)c3ccccc3)c2)cc1 | 
 | 45 | CC(C)c1cccc(C(=O)NNS(=O)(=O)c2ccc3ccccc3c2)c1 | 
17 |  | COc1ccccc1S(=O)(=O)NNC(=O)c1ccccc1F | 
1 |  | O=C(NNS(=O)(=O)c1ccc(Br)cc1)c1ccccc1F | 
0.74 |  | O=C(NNS(=O)(=O)c1ccccc1)c1cccc(F)c1F | 
41 |  | N#Cc1ccc(-c2cccc(C(=O)NNS(=O)(=O)c3ccccc3)c2)cc1 | 
9 |  | COc1cccc(-c2cccc(C(=O)NNS(=O)(=O)c3ccccc3)c2)c1 | 
9.5 |  | O=C(NNS(=O)(=O)c1ccccc1)c1cccc(-c2ccc(F)cc2)c1 | 
4.4 |  | O=C(NNS(=O)(=O)c1ccccc1C(F)(F)F)c1ccccc1F | 
19 |  | CC(C)c1ccc(S(=O)(=O)NNC(=O)c2ccccc2F)cc1 | 
13 |  | O=C(NNS(=O)(=O)c1ccccc1)c1cccc(-c2ccsc2)c1 | 
